Data taken from paper PMC12775434, “Ultra-large virtual screening unveils potent agonists of the neuromodulatory orphan receptor GPR139” (Nature Communications, 2025).
Where “and” joins values, the source holds several entries; their conditions need not be identical. Equal entries are not always repeated.

Key:
GPR139 [1] = biological target: T1, GPR139 (Homo sapiens, UniProt Q6DWJ6); experiment: Ca2+ mobilization assay, agonist mode, stable GPR139-CHOk1 cell line; type: cell-based
T1 sequence (Q6DWJ6 1-353): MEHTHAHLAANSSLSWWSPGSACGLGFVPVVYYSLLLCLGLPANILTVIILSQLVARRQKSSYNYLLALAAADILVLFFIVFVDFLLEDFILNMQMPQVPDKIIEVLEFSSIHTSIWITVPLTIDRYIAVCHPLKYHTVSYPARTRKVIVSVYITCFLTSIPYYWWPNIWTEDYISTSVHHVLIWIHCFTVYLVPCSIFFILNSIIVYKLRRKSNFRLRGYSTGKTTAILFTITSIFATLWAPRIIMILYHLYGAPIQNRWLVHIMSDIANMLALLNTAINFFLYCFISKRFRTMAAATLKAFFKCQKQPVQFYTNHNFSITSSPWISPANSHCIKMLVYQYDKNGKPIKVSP
Procedure: Primary screening and pharmacological characterization of compounds were performed using a CHO-K1 cell line that stably expresses human GPR139 (GPR139-CHOk1). The GPR139-CHOk1 cell line was kindly provided by H. Lundbeck A/S, Denmark[24]. GPR139-CHOk1 cells were grown in Ham’s F-12 Kaighn’s Modification Medium (ThermoFisher #21127030) supplemented with 10% dialyzed fetal bovine serum (US origin, ThermoFisher #26400044), 100 units/mL Penicillin-Streptomycin (ThermoFisher #15140122), and 1 mg/mL Geneticin (ThermoFisher #11811031). […] M1R-CHOk1 cells were purchased from The Missouri S&T cDNA Resource Center (#CEM100TN00). M1R-CHOk1 cells were grown in Ham’s F12 Medium (ThermoFisher #21765029) supplemented with 10% fetal bovine serum (Brazilian origin, ThermoFisher #10270106), 100 units/mL Penicillin-Streptomycin, and 0.25 mg/mL Geneticin. HEK293A cells transiently transfected with GPR139 were used for additional pharmacological assessment of signaling pathways activated by GPR139. HEK239A cells were generously provided by Dr. Asuka Inoue, Tohoku University, Japan. HEK293A cells were grown in Dulbecco’s Modified Eagle Medium (ThermoFisher #31966047) supplemented with 10% dialyzed fetal bovine serum and 100 units/mL Penicillin-Streptomycin. Cell lines were maintained at 37 °C in humidified incubator equilibrated with 5% CO2.
(§1) 30,000 GPR139- or M1R-CHOk1 cells/well were seeded in black clear bottom tissue culture treated 96-well plates (Greiner #655090) and grown for 20–24 h. Cells were washed with HEPES buffer (Hank’s Balanced Salt Solution (HBBS) supplemented with 20 mM HEPES, 1 mM MgCl2, and 1 mM CaCl2; pH 7.4). Cells were loaded with 50 µL of 2 µM Fluo-4 AM dye (ThermoFisher #F14202) in HEPES buffer supplemented with 2.5 mM probenecid and 0.01% Pluronic F-68 (ThermoFisher #24040032) for 1 h at 37 °C. Cells were washed with HEPES buffer. 50 µL HEPES buffer supplemented with 2.5 mM probenecid was added, and the cells were incubated for 10 min at 37 °C before measurement. 50 µL test compounds diluted in HEPES buffer from DMSO stocks (final DMSO concentration of maximally 0.3%) were added automatically after baseline measurements. The intracellular calcium mobilization was measured on a FlexStation 3 Multimode Microplate Reader (Molecular Devices) at 37 °C with filters for excitation of 485 nm and emission of 525 nm.
(§2) Our primary compound screening protocol consisted of two subsequent steps that allowed to screen for agonists and antagonists simultaneously. In the first step, the screening compounds were applied at 10 µM to test for agonist activity (agonist mode). Following 20 min incubation with the compounds added in the first step, in the second step, an EC80 concentration (800 nM) of the reference agonist Lundbeck Cmp 1a was applied to test for antagonist activity (antagonist mode).
Pharmacological data and statistical analyses were performed in GraphPad Prism v9–10 (Graphpad Software Inc., San Diego, CA), which are also specifically described in the figure and table legends. The functional assay responses were normalized to buffer (0%) and Lundbeck Cmp 1a or JNJ-63533054 (100%), for Ca^2+ and IP1 experiments in the GPR139-CHOk1 stable cell line or Ca^2+, G protein activation, and arrestin-3 recruitment experiments in the HEK293A cells transiently transfected with GPR139, respectively. Data are from at least three independent experiments, unless stated otherwise. Concentration-response curves were fitted applying non-linear regression using the log (agonist) versus response model with variable slope. ANOVA was applied for comparing results and determining statistical significance.

GPR139 [2] = biological target: T1, GPR139; experiment: Ca2+ mobilization assay, antagonist mode (EC80 800 nM Lundbeck Cmp 1a after 20 min preincubation), GPR139-CHOk1; type: cell-based
Procedure: as §1
as §2, with “(antagonist mode). In the agonist mode (first step) response is seen only with compounds having agonist activity (Cmp 1a), but not with non-receptor-binding compounds (Vehicle) or antagonists (NCRW0105-E06) (Supplementary Fig. 14). […] No antagonist compounds were identified in this study.” for “(antagonist mode).”

[3] = Agonist mode, individual replicates (Supplementary Figure 4)
[4] = individual replicates (Supplementary Figure 4)
[5] = Agonist mode, individual replicates (Supplementary Figure 1)
[6] = individual replicates (Supplementary Figure 1)

SMILES	Ca2+ signal (% of Cmp 1a) (GPR139 [1]; [5])	Ca2+ signal (% of Cmp 1a) (GPR139 [2]; [6])	also measured
COc1ccc2cc(-c3nc(CC(=O)NC(C)c4ccccc4)no3)sc2c1 (centres unmarked) [Compound 1.36, COC1=CC2=C(C=C(C3=NC(CC(NC(C4=CC=CC=C4)C)=O)=NO3)S2)C=C1]	–	–	activation of GPR139 in analog screen (GPR139 [1]; 10 µM): All analogs, with the exception of compound 1.36, activated GPR139; Ca2+ signal (% of Cmp 1a) (GPR139 [1]; [3]): 0 % of Cmp 1a and -15 % of Cmp 1a and -10 % of Cmp 1a; change in potency with larger substituents on the thiophene ring (GPR139 [1]; Ca2+ mobilization): three-fold reduction to a complete loss of activity; Ca2+ signal (% of Cmp 1a) (GPR139 [2]; [4]): 52 % of Cmp 1a and 69 % of Cmp 1a and 54 % of Cmp 1a
COc1ccc(OCc2nc(CC(=O)NC(C)c3ccccc3)no2)cc1 (centres unmarked) [Compound 1.37, COC1=CC=C(OCC2=NC(CC(NC(C3=CC=CC=C3)C)=O)=NO2)C=C1]	–	–	Ca2+ signal (% of Cmp 1a) (GPR139 [1]; [3]): 65 % of Cmp 1a and 55 % of Cmp 1a and 21 % of Cmp 1a; Ca2+ signal (% of Cmp 1a) (GPR139 [2]; [4]): 36 % of Cmp 1a and 40 % of Cmp 1a and 37 % of Cmp 1a
CC(NC(=O)Cc1coc(-c2cccs2)n1)c1ccccc1 (centres unmarked) [Compound 1.44, CC(NC(=O)CC1=COC(=N1)C2=CC=CS2)C=3C=CC=CC3]	–	–	calcium mobilization response relative to Lundbeck Cmp 1a (GPR139 [1]; 10 µM compound, agonist mode): 43%; Ca2+ signal (% of Cmp 1a) (GPR139 [1]; [3]): 88 % of Cmp 1a and 15 % of Cmp 1a and 25 % of Cmp 1a; fold decrease in potency on substitution of the central oxadiazole ring (GPR139 [1]; Ca2+ mobilization): > 50 fold; EC50 (GPR139 [1]; GPR139-CHOk1, read-out: EC50, Ca2+ mobilization): > 10 µM; Ca2+ signal (% of Cmp 1a) (GPR139 [2]; [4]): -8 % of Cmp 1a and 68 % of Cmp 1a and 69 % of Cmp 1a
Cc1nn(C)c2nc(C(=O)N[C@@H](C)c3ccccc3)ccc12 [Compound 15, C[C@H](NC(=O)C=1C=CC=2C(C)=NN(C)C2N1)C=3C=CC=CC3]	-11 % of Cmp 1a and 0.224 % of Cmp 1a and 7.56 % of Cmp 1a	88.3523 % of Cmp 1a and 83.7132 % of Cmp 1a and 99.0735 % of Cmp 1a	–
C[C@H](NC(=O)c1ccc(=O)n(-c2ccc(F)cc2)n1)c1ccccc1 [Compound 16, C[C@H](NC(=O)C=1C=CC(=O)N(N1)C=2C=CC(F)=CC2)C=3C=CC=CC3]	-6 % of Cmp 1a and 42 % of Cmp 1a and 24 % of Cmp 1a	74.1067 % of Cmp 1a and 36.0111 % of Cmp 1a and 92.3974 % of Cmp 1a	–
Cc1nnnn1C(=Cc1ccccc1)C(=O)N[C@@H](C)c1ccccc1 [Compound 17, C[C@H](NC(=O)C(=CC=1C=CC=CC1)N2N=NN=C2C)C=3C=CC=CC3]	4.36 % of Cmp 1a and -2.84 % of Cmp 1a and 2.54 % of Cmp 1a	61.7351 % of Cmp 1a and 85.7644 % of Cmp 1a and 78.6356 % of Cmp 1a	–
C[C@H](NC(=O)c1cn2cccnc2n1)c1ccccc1 [Compound 18, C[C@H](NC(=O)C1=CN2C=CC=NC2=N1)C=3C=CC=CC3]	2.28 % of Cmp 1a and 13 % of Cmp 1a and 21 % of Cmp 1a	80.6397 % of Cmp 1a and 68.0976 % of Cmp 1a and 80.5455 % of Cmp 1a	–
CC(O)CN(Cc1ccccc1)C(=O)NCc1ccc(Cl)o1 (centres unmarked) [Compound 19, CC(O)CN(CC=1C=CC=CC1)C(=O)NCC2=CC=C(Cl)O2]	4 % of Cmp 1a and 5 % of Cmp 1a and 6.65 % of Cmp 1a	78.3598 % of Cmp 1a and 79.4126 % of Cmp 1a and 77.319 % of Cmp 1a	Ca2+ signal (% of Cmp 1a) (GPR139 [1]; primary screen, 10 µM compound, agonist mode, three columns = independent experiments): 4 % of Cmp 1a and 5 % of Cmp 1a and 6.65 % of Cmp 1a
CC(C)(NC(=O)Nc1ccccc1)C(=O)Nc1cnc2ccccc2c1 [Compound 20, CC(C)(NC(=O)NC=1C=CC=CC1)C(=O)NC=2C=NC=3C=CC=CC3C2]	2.84 % of Cmp 1a and -2.82 % of Cmp 1a and 13 % of Cmp 1a	73.2682 % of Cmp 1a and 77.4411 % of Cmp 1a and 81.0233 % of Cmp 1a	–
Cc1ccc(OCC(=O)Nc2ccc3c(c2)nc(C)n3C)cc1 [Compound 21, CC1=NC=2C=C(NC(=O)COC=3C=CC(C)=CC3)C=CC2N1C]	1.09 % of Cmp 1a and -7 % of Cmp 1a and -8 % of Cmp 1a	67.0268 % of Cmp 1a and 92.847 % of Cmp 1a and 77.1923 % of Cmp 1a	–
CC(CC(=O)N(CC(=O)N1CCCC1)CC1CCCO1)n1cccc1 (centres unmarked) [Compound 22, CC(CC(=O)N(CC1CCCO1)CC(=O)N2CCCC2)N3C=CC=C3]	10 % of Cmp 1a and -5.34 % of Cmp 1a and 0.0706 % of Cmp 1a	90.9616 % of Cmp 1a and 92.7534 % of Cmp 1a and 72.9128 % of Cmp 1a	–
Cc1sc2ncn(NC(=O)c3csc4cncn34)c(=O)c2c1C [Compound 23, CC=1SC=2N=CN(NC(=O)C3=CSC4=CN=CN34)C(=O)C2C1C]	-1 % of Cmp 1a and 11 % of Cmp 1a and -1.45 % of Cmp 1a	92.3647 % of Cmp 1a and 68.6585 % of Cmp 1a and 94.6907 % of Cmp 1a	–
O=C(Cn1ccnc1)Nc1cccc(N2C(=O)c3ccccc3C2=O)c1 [Compound 24, O=C(CN1C=CN=C1)NC=2C=CC=C(C2)N3C(=O)C=4C=CC=CC4C3=O]	-4 % of Cmp 1a and 3 % of Cmp 1a and -9 % of Cmp 1a	76.1398 % of Cmp 1a and 60.9703 % of Cmp 1a and 76.3719 % of Cmp 1a	–
CN(Cc1nnc[nH]1)c1nc(-c2cc(Cl)cc(Cl)c2)no1 [Compound 25, CN(CC1=NN=CN1)C2=NC(=NO2)C=3C=C(Cl)C=C(Cl)C3]	4.25 % of Cmp 1a and 1 % of Cmp 1a and 14 % of Cmp 1a	70.9298 % of Cmp 1a and 72.5727 % of Cmp 1a and 87.7637 % of Cmp 1a	–
C[C@H](NC(=O)C1(OCc2ccccc2)CCOCC1)c1ccccc1 [Compound 26, C[C@H](NC(=O)C1(CCOCC1)OCC=2C=CC=CC2)C=3C=CC=CC3]	2.84 % of Cmp 1a and -5 % of Cmp 1a and 4.48 % of Cmp 1a	89.3069 % of Cmp 1a and 86.2472 % of Cmp 1a and 83.3433 % of Cmp 1a	–
Cc1cccc(-c2nc(C(=O)N3CCc4ncccc43)c(C)[nH]2)c1 [Compound 27, CC=1NC(=NC1C(=O)N2CCC=3N=CC=CC23)C=4C=CC=C(C)C4]	-4.28 % of Cmp 1a and 11 % of Cmp 1a and 2.44 % of Cmp 1a	81.7236 % of Cmp 1a and 71.1235 % of Cmp 1a and 80.4014 % of Cmp 1a	–
O=C(NCC1CC=CCC1)Nc1cnn(-c2cnc3ccccc3n2)c1 (centres unmarked) [Compound 28, O=C(NCC1CCC=CC1)NC=2C=NN(C2)C=3C=NC=4C=CC=CC4N3]	-7.43 % of Cmp 1a and 8 % of Cmp 1a and 9 % of Cmp 1a	78.5136 % of Cmp 1a and 66.4897 % of Cmp 1a and 98.5524 % of Cmp 1a	–
CCc1ocnc1C(=O)Nc1cccc(C(=O)NCc2ccccc2)c1 [Compound 29, CCC=1OC=NC1C(=O)NC=2C=CC=C(C2)C(=O)NCC=3C=CC=CC3]	-4.43 % of Cmp 1a and 1.9 % of Cmp 1a and 8 % of Cmp 1a	59.2373 % of Cmp 1a and 59.0417 % of Cmp 1a and 94.2662 % of Cmp 1a	–
Cn1c(SCC(=O)Nc2c(F)cccc2F)nc2ccccc21 [Compound 30, CN1C(SCC(=O)NC=2C(F)=CC=CC2F)=NC=3C=CC=CC13]	-6.62 % of Cmp 1a and 1.6 % of Cmp 1a and 14 % of Cmp 1a	67.1888 % of Cmp 1a and 62.1843 % of Cmp 1a and 60.1781 % of Cmp 1a	–
